The term IC50 denotes the concentration at which inhibition is half-maximal. The term Kd denotes the concentration at which binding is half-saturated.

Each structure is given as a SMILES string. The source made the active and inactive calls. The calls are words filed in the database; no cut-off is given here.

The values that follow come from ChEMBL document CHEMBL6087422, “A promising class of antiprotozoal agents, design and synthesis of novel Pyrimidine-Cinnamoyl hybrids” (Eur J Med Chem, 2025).

Data set [1] deals with Plasmodium falciparum. The experiment in a line: Antimalarial activity against chloroquine-sensitive Plasmodium falciparum NF54 assessed as inhibition of parasite growth measured after 24 hrs by parasite lactate dehydrogenase (pLDH) assay. As to conditions: NF54, 24 h. In kind it is functional, organism-based.
Data set [2] is described as follows: Cytotoxicity against HEK293 cells assessed as cell viability incubated for 48 hrs by MTT assay. In kind it is toxicity, cell-based. As to conditions: human.
Data set [3] is described as follows: Haemolytic activity in human RBC assessed as haemolysis at 50 uM for 48 hrs by haemolysis assay. In kind it is toxicity, cell-based, Erythrocyte. To be noted: human red blood cells, read-out: Activity.
The nature of data set [4]: Selectivity index, ratio of IC50 for cytotoxicity against HEK293 cells to IC50 for antimalarial activity against chloroquine sensitive Plasmodium falciparum NF54 assessed as inhibition of parasite growth measured after 24 hrs by parasite lactate dehydrogenase (pLDH) assay. In kind it is toxicity, cell-based. To be noted: human, HEK293 cells versus Plasmodium falciparum NF54, read-out: Ratio IC50.

Data set [5] relates to Plasmodium falciparum. The experiment in a line: Antimalarial activity against chloroquine-sensitive Plasmodium falciparum NF54 assessed as reduction of schizonts at IC50 concentration incubated for 48 hrs by microscopic analysis. In kind it is functional, organism-based.
Data set [6] deals with Plasmodium falciparum. The experiment in a line: Binding affinity to 6xHis tagged recombinant Plasmodium falciparum Hsp70-1 extracted from Escherichia coli assessed as association rate constant (Ka) incubated for 3 mins by SPR analysis.
Data set [7] relates to Plasmodium falciparum. The data set can be described thus: Antimalarial activity against chloroquine-sensitive Plasmodium falciparum NF54 assessed as reduction of second generation rings at IC50 concentration incubated for 48 hrs by microscopic analysis. In kind it is functional, organism-based.
A short description of data set [8]: Binding affinity to 6xHis tagged recombinant Plasmodium falciparum Hsp70-z extracted from Escherichia coli assessed as dissociation rate constant (Kd) incubated for 10 mins by SPR analysis. (SPR reads the build-up and loss of mass on a sensor chip optically.)
Data set [9] has as its system Plasmodium falciparum. The experiment in a line: Binding affinity to 6xHis tagged recombinant Plasmodium falciparum Hsp70-1 extracted from Escherichia coli by SPR analysis.
Data set [10] can be described thus: Binding affinity to 6xHis tagged recombinant Plasmodium falciparum Hsp70-1 extracted from Escherichia coli assessed as dissociation constant (KD) incubated for 10 mins by SPR analysis.
In data set [11] the test system is Plasmodium falciparum. The experiment in a line: Binding affinity to 6xHis tagged recombinant Plasmodium falciparum Hsp70-z extracted from Escherichia coli assessed as association rate constant (Ka) incubated for 3 mins by SPR analysis.
Data set [12] can be described thus: Binding affinity to 6xHis tagged recombinant Plasmodium falciparum Hsp70-z extracted from Escherichia coli assessed as dissociation constant (KD) incubated for 10 mins by SPR analysis.
Data set [13] has as its system Plasmodium falciparum. The experiment in a line: Binding affinity to 6xHis tagged recombinant Plasmodium falciparum Hsp70-z extracted from Escherichia coli by SPR analysis.
Data set [14] can be described thus: Binding affinity to 6xHis tagged recombinant Plasmodium falciparum Hsp70-1 extracted from Escherichia coli assessed as dissociation rate constant (Kd) incubated for 10 mins by SPR analysis.
The test system of data set [15] is Plasmodium falciparum. The data set can be described thus: Antimalarial activity against […] Plasmodium falciparum 3D7 assessed as growth inhibition by isotopic micro drug susceptibility assay. In kind it is functional, organism-based.
Data set [16] deals with Plasmodium falciparum. The data set can be described thus: Antimalarial activity against chloroquine-sensitive Plasmodium falciparum W2 assessed as growth inhibition by isotopic micro drug susceptibility assay. In kind it is functional, organism-based.
Data set [17] deals with Plasmodium berghei. The experiment in a line: In vivo antiplasmodial activity against Plasmodium berghei assessed as growth inhibition at 100 mg/kg measured after 21 days relative to control. To be noted: time 21 day. In kind it is functional. Details: scale not given: the % may be the effect or the level left.
Data set [18] has as its system Plasmodium falciparum. The data set can be described thus: Antimalarial activity against chloroquine-resistant intra-erythrocytic stage Plasmodium falciparum. In kind it is functional, organism-based.

As for `COc1ccc(-c2cc(-c3ccc(C)cc3)nc(N3CCN(C(=O)/C=C/c4ccc(OC)c(OC)c4)CC3)n2)cc1`, the half-inhibitory concentration (IC50) in [1] was 0.6 µM. Moreover, in [2], the IC50 at 48 h is 0.93 µM. Also, the hemolysis at 48 h, 50 µM in data set [3] came to 0.01%. In [4], the selectivity ratio at 24 h was 1.54.
Take `CCN(CC)CCCC(C)Nc1ccnc2cc(Cl)ccc12` (configuration not stated) [CHLOROQUINE]: in data set [3], the hemolysis at 48 h, 50 µM amounted to 0.01%.
With `Cc1ccc(/C=C/C(=O)N2CCN(c3nc(-c4ccc(Cl)cc4)cc(-c4cccnc4)n3)CC2)cc1`, the concentration for half-maximal inhibition (IC50) in [1] came to 3.67 µM. Also, in [3], the hemolysis at 48 h, 50 µM was 0.01%.
On to `COc1ccc(-c2cc(-c3ccc(C)cc3)nc(N3CCN(C(=O)/C=C/c4ccc(Cl)cc4)CC3)n2)cc1`, for which, in data set [1], the half-maximal inhibitory concentration (IC50) was 1.72 µM. The hemolysis at 48 h, 50 µM in [3] amounted to 0.01%.
As to `CCc1ccc(-c2cc(-c3ccc(OC)c(OC)c3)nc(N3CCN(C(=O)/C=C/c4ccc(Cl)cc4)CC3)n2)cc1`, the half-maximal inhibitory concentration (IC50) in data set [1] was found to be 0.2 µM. Further, the concentration for half-maximal inhibition (IC50) at 48 h in [2] is 0.87 µM. Besides, the hemolysis at 48 h, 50 µM in data set [3] was 0.01%. Also, the selectivity ratio at 24 h in data set [4] stood at 4.34.
For `COc1ccc(-c2cc(-c3ccc(OC)cc3)nc(N3CCN(C(=O)/C=C/c4ccc(OC)c(OC)c4)CC3)n2)cc1`, the IC50 in data set [1] was 5 µM. The hemolysis at 48 h, 50 µM in [3] is 0.01%.
As to `COc1ccc(-c2cc(-c3ccc(Cl)cc3)nc(N3CCN(C(=O)/C=C/c4ccccc4)CC3)n2)cc1`, the half-maximal inhibitory concentration (IC50) in [1] was found to be 6.02 µM. Besides, in data set [3], the hemolysis at 48 h, 50 µM is 0.01%.
For `COc1ccc(-c2cc(-c3ccc(OC)cc3)nc(N3CCN(C(=O)/C=C/c4ccccc4)CC3)n2)cc1`, in [1], the IC50 turned out to be 4.09 µM. For the same molecule, in [3], the hemolysis at 48 h, 50 µM worked out at 0.01%.
With `COc1ccc(-c2cc(-c3ccc(C)cc3)nc(N3CCN(C(=O)/C=C/c4ccc(C)cc4)CC3)n2)cc1`, the IC50 in data set [1] stood at 2.33 µM. Moreover, the hemolysis at 48 h, 50 µM in [3] is 0.01%.
Regarding `C=C[C@H]1CN2CC[C@H]1C[C@H]2[C@H](O)c1ccnc2ccc(OC)cc12` [QUININE], the IC50 in data set [1] worked out at 0.11 µM. Moreover, the hemolysis at 48 h, 50 µM in data set [3] amounted to 0.01%. The selectivity ratio at 24 h in [4] is 1240.
Consider `COc1ccc(-c2cc(-c3ccc(OC)cc3)nc(N3CCN(C(=O)/C=C/c4ccc[nH]4)CC3)n2)cc1`, for which the concentration for half-maximal inhibition (IC50) in data set [1] was 7.43 µM. For the same molecule, the concentration for half-maximal inhibition (IC50) at 48 h in data set [2] was 3.69 µM. For the same molecule, the hemolysis at 48 h, 50 µM in data set [3] came to 0.01%. Further, the selectivity ratio at 24 h in data set [4] was determined as 0.5.
Regarding `O=C(/C=C/c1ccccc1)N1CCN(c2nc(-c3cccnc3)cc(-c3ccoc3)n2)CC1`, in [1], the 50% inhibitory concentration (IC50) stood at 5 µM. Moreover, the hemolysis at 48 h, 50 µM in data set [3] worked out at 0.01%.
For the molecule `CCc1ccc(-c2cc(-c3ccc(OC)c(OC)c3)nc(N3CCN(C(=O)/C=C/c4ccc[nH]4)CC3)n2)cc1`, in data set [1], the 50% inhibitory concentration (IC50) turned out to be 0.72 µM. Also, the hemolysis at 48 h, 50 µM in data set [3] amounted to 0.01%.
As to `CCc1ccc(-c2cc(-c3ccc(OC)c(OC)c3)nc(N3CCN(C(=O)/C=C/c4ccccc4)CC3)n2)cc1`, the outcome in data set [5] and in data set [7] was Active. The IC50 in [1] is 0.21 µM. For the same molecule, the half-inhibitory concentration (IC50) at 48 h in data set [2] came out at 3.55 µM. In addition, the figures for the Ka in [6] and in data set [11] were 7.97 10^6/M.s and 8.28 10^6/M.s, respectively. For the same molecule, the hemolysis at 48 h, 50 µM in data set [3] came to 0.01%. The Kd in data set [8] was 8.97 10^-2(1/s); in data set [10], 0.00969 µM; in data set [12], 0.0108 µM; in data set [14] it was 7.72 10^-2(1/s). Further, the Activity entry in data set [9] and in [13] was “Dose-dependent-effect” each time. For the same molecule, the selectivity ratio at 24 h in data set [4] turned out to be 16.8.
Consider `COc1ccc(-c2cc(-c3ccc(C)cc3)nc(N3CCNCC3)n2)cc1`, for which the 50% inhibitory concentration (IC50) in data set [1] came out at 5 µM. Besides, the hemolysis at 48 h, 50 µM in data set [3] was 0.01%.
`CO[C@H]1/C=C/O[C@@]2(C)Oc3c(C)c(O)c4c(O)c(c(/C=N/N5CCN(C)CC5)c(O)c4c3C2=O)NC(=O)/C(C)=C\C=C\[C@H](C)[C@H](O)[C@@H](C)[C@@H](O)[C@@H](C)[C@H](OC(C)=O)[C@@H]1C` [RIFAMPIN]: the values for the half-inhibitory concentration (IC50) in data set [15] and in [16] were 3.2 µM and 1.3 µM, respectively.
Consider `COc1ccc(-c2cc(-c3ccc(OC)cc3)nc(N3CCN(C(=O)/C=C/c4ccc(C)cc4)CC3)n2)cc1`, for which, in [1], the IC50 stood at 3.58 µM. The hemolysis at 48 h, 50 µM in [3] turned out to be 0.01%.
For the molecule `CC[C@@]1(O)C(=O)OCc2c1cc1n(c2=O)Cc2cc3ccccc3nc2-1` [CAMPTOTHECIN], the IC50 at 48 h in [2] came out at 0.2 µM.
As to `COc1ccc(-c2cc(-c3ccc(OC)cc3)nc(N3CCN(C(=O)/C=C/c4ccc(Cl)cc4)CC3)n2)cc1`, in data set [1], the half-maximal inhibitory concentration (IC50) came out at 2.71 µM. Also, the hemolysis at 48 h, 50 µM in data set [3] is 0.01%.
For `COc1ccc(-c2cc(-c3ccc(C)cc3)nc(N3CCN(C(=O)/C=C/c4ccccc4)CC3)n2)cc1` the same measures were 2.72 µM and 0.01%.
Take `CCc1ccc(-c2cc(-c3ccc(OC)c(OC)c3)nc(N3CCN(C(=O)/C=C/c4ccc(C)cc4)CC3)n2)cc1`: the IC50 in data set [1] stood at 1.56 µM. In addition, in data set [3], the hemolysis at 48 h, 50 µM worked out at 0.01%.
As for `CCc1ccc(-c2cc(-c3ccc(OC)c(OC)c3)nc(N3CCN(C(=O)/C=C/c4ccc(OC)cc4)CC3)n2)cc1`, the outcome in data set [5] and in [7] was Active. In addition, the concentration for half-maximal inhibition (IC50) in [1] was found to be 0.18 µM. In addition, in data set [2], the IC50 at 48 h was 3.36 µM. Besides, the Ka in [6] was 5.92 10^6/M.s; in data set [11] it was 6.24 10^6/M.s. Moreover, in data set [3], the hemolysis at 48 h, 50 µM amounted to 0.01%. Also, the Kd in data set [8] is 9.79 10^-2(1/s); in [10], 0.00157 µM; in [12], 0.0157 µM; in data set [14], 9.29 10^-2(1/s). Besides, the Activity entry in [9] and in data set [13] was “Dose-dependent-effect” each time. In addition, the selectivity ratio at 24 h in data set [4] is 18.6.
For the molecule `COc1cc(/C=C/C(=O)CC(=O)/C=C/c2ccc(O)c(OC)c2)ccc1O` [CURCUMIN], in data set [17], the Activity was 100%. In data set [18], the half-inhibitory concentration (IC50) was ~5 µM.
With `COc1ccc(/C=C/C(=O)N2CCN(c3nc(-c4ccc(OC)cc4)cc(-c4ccc(OC)cc4)n3)CC2)cc1`, the IC50 in data set [1] turned out to be 5 µM. For the same molecule, the hemolysis at 48 h, 50 µM in [3] came out at 0.01%.
